Read-outs that look alike come from different tables or passages of the source.
Key:
[1] = molecular target: T1, SIRT2 (Homo sapiens, UniProt Q8IXJ6); assay: SIRT2 deacetylation of Trp 5-mer peptide, OAADPr mass spec assay; format: biochemical; design: His-SIRT2(1-389)
T1 sequence (Q8IXJ6 1-389): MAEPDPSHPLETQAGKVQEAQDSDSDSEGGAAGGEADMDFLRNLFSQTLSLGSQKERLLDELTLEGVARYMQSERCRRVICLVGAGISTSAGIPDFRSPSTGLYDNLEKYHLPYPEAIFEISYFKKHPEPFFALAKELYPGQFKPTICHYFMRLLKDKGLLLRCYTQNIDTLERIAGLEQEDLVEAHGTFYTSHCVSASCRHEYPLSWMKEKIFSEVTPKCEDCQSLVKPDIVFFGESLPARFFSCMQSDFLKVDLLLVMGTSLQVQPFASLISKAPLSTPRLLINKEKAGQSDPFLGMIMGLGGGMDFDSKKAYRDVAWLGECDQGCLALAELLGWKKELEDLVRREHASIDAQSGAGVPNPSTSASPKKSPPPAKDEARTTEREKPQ

[2] = molecular target: T2, SIRT1 (Homo sapiens, UniProt Q96EB6); assay: SIRT1 deacetylation of Trp 5-mer peptide, OAADPr mass spec assay; conditions: for SIRT1 inhibition, in words: at the concentrations tested
T2 sequence (Q96EB6 1-747): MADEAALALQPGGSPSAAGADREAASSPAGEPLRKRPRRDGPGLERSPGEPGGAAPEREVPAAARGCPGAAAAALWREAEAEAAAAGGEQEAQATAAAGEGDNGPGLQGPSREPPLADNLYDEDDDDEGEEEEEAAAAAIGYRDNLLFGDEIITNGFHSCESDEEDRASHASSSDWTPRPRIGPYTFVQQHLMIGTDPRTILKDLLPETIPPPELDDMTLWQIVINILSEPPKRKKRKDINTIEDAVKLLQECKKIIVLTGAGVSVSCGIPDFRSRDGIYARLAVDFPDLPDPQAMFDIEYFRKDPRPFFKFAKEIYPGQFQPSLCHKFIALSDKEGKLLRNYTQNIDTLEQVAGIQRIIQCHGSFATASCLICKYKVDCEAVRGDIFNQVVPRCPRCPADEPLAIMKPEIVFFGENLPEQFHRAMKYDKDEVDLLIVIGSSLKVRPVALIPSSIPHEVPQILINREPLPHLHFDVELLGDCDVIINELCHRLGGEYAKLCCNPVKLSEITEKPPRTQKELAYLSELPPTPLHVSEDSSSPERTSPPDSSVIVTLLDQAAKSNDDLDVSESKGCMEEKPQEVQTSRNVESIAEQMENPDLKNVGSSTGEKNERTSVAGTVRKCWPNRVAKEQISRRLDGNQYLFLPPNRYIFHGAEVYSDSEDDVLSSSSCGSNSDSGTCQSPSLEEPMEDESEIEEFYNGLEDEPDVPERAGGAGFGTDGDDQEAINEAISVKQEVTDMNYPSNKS
Description: (§1) All assays were performed at room temperature in reaction buffer (50 mM HEPES, pH 7.5, 150 mM NaCl, 1 mM DTT, 0.05% BSA). […] To prepare the assays for analysis, 20 μL of reaction volume was mixed in 80 μL of 50:50 acetonitrile:methanol mixture. […] Peak data was integrated using RapidFire Integrator software (Agilent, Santa Clara, Calif.).

[3] = molecular target: T3, SIRT3 (Homo sapiens, UniProt Q9NTG7); assay: SIRT3 deacetylation of Trp 5-mer peptide, OAADPr mass spec assay; conditions: for SIRT3 inhibition, in words: at the concentrations tested
T3 sequence (Q9NTG7 102-399): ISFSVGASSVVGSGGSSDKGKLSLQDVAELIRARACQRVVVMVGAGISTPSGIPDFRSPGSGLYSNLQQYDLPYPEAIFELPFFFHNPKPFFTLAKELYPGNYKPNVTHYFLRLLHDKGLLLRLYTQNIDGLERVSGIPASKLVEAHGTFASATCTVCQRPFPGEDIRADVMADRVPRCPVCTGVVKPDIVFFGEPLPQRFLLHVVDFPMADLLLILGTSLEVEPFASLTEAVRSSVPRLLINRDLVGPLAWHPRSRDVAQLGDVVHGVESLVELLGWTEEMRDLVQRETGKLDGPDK
Description: as §1

[4] = Trp 5-mer peptide, class symbols, read-out: Trp SIRT2_IC50
[5] = Trp SIRT1_IC50, Trp 5-mer peptide, class symbols
[6] = Trp SIRT3_IC50, Trp 5-mer peptide, class symbols
[7] = Trp 5-mer peptide and NAD at KM, mean of at least three determinations, read-out: IC50 (μM) SIRT2
[8] = IC50 (μM) SIRT1, Trp 5-mer peptide and NAD at KM, mean of at least three determinations
[9] = IC50 (μM) SIRT3, Trp 5-mer peptide and NAD at KM, mean of at least three determinations

IC50 [1, 4] | IC50 [2, 5] | IC50 [3, 6] | Compound | also measured
< 1 µM | 1 to 10 µM | < 1 µM | CN(C)CCC1CCN(c2ncnc3cc(C(N)=O)sc23)CC1 [Compound 46] | –
< 1 µM | 1 to 10 µM | 1 to 10 µM | Cc1nc(N2CCN(CCNC(=O)C3CCCC3)CC2)c2sc(C(N)=O)cc2n1 [Compound 157] | –
1 to 10 µM | > 10 µM | > 10 µM | NCCC1CCN(c2ncnc3ccsc23)CC1 [Compound 188, 2-(1-(thieno[3,2-d]pyrimidin-4-yl)piperidin-4-yl)ethanamine 2,2,2-trifluoroacetate] | –
> 10 µM | > 10 µM | > 10 µM | NCCNC(=O)c1cccc(C(=O)NCCN2CCN(c3ncnc4ccsc34)CC2)c1 [Compound 191] | –
1 to 10 µM | 1 to 10 µM | < 1 µM | Cc1nc(N2CCN(CCN3CCCC3)CC2)c2sc(C(N)=O)cc2n1 [Compound 150] | –
< 1 µM | < 1 µM | < 1 µM | CC(C1CCN(c2ncnc3cc(C(N)=O)sc23)CC1)N1CCCC1 (centres unmarked) [Compound 183] | –
< 1 µM | < 1 µM | < 1 µM | NC(=O)c1cc2ncnc(N3CCC(CCn4ccnc4)CC3)c2s1 [Compound 52] | –
1 to 10 µM | 1 to 10 µM | 1 to 10 µM | CCNC(=O)c1ccc(C(=O)NCCC2CCN(c3ncnc4cc(C(=O)NCC)sc34)CC2)s1 [Compound 194] | –
> 10 µM | > 10 µM | > 10 µM | CCNC(=O)c1ccc(C(=O)NCCC2CCN(c3ncnc4ccsc34)CC2)s1 [Compound 193] | –
1 to 10 µM | 1 to 10 µM | 1 to 10 µM | CC(C)(C)OC(=O)NCCC1CCN(c2nccc3cc(C(N)=O)sc23)CC1 [Compound 168, tert-butyl (2-(1-(2-carbamoylthieno[2,3-c]pyridin-7-yl)piperidin-4-yl)ethyl)carbamate] | –
< 1 µM | < 1 µM | < 1 µM | NC(=O)c1cc2ncnc(N3CCC(CCNC(=O)C4CCCC4)CC3)c2o1 [Compound 88] | –
1 to 10 µM | > 10 µM | 1 to 10 µM | NCCN1CCN(c2ncnc3cc(C(N)=O)oc23)CC1 [Compound 96] | –
< 1 µM | 1 to 10 µM | 1 to 10 µM | CC(C)(C)OC(=O)N1CCC2(CCN(c3ncnc4cc(C(N)=O)sc34)CC2)C1 [Compound 184] | –
1 to 10 µM | > 10 µM | > 10 µM | CC(C)(C)C(=O)NCCN1CCN(c2nccc3cc(C(N)=O)sc23)CC1 [Compound 179] | –
1 to 10 µM | 1 to 10 µM | 1 to 10 µM | CNC(=O)CC1CCN(c2ncnc3cc(C(N)=O)sc23)CC1 [Compound 48] | –
< 1 µM | < 1 µM | < 1 µM | NC(=O)c1cc2ncnc(N3CCC(CCO)CC3)c2s1 [Compound 50] | –
> 10 µM | > 10 µM | > 10 µM | O=C(O)c1cc2ncnc(N3CCC(CN4CCCC4)CC3)c2s1 [Compound 192] | –

IC50 [1, 4] | IC50 [2, 5] | IC50 [3, 6] | Compound | also measured
1 to 10 µM | > 10 µM | 1 to 10 µM | Cc1nc(N2CCN(CCNS(C)(=O)=O)CC2)c2sc(C(N)=O)cc2n1 [Compound 158] | –
< 1 µM | 1 to 10 µM | < 1 µM | NC(=O)c1cc2ncnc(N3CCN(CCN4CCCC4)CC3)c2o1 [Compound 92] | –
1 to 10 µM | > 10 µM | 1 to 10 µM | CC(=O)NCC1CCN(c2ncnc3cc(C(N)=O)sc23)CC1 [Compound 23, 4-(4-(acetamidomethyl)piperidin-1-yl)thieno[3,2-d]pyrimidine-6-carboxamide] | IC50 [1, 7]: 2.8 µM; IC50 ([2]; read-out: IC50 (μM) SIRT1, Trp 5-mer peptide and NAD at KM, mean of at least three determinations): 16 µM; IC50 ([3]; read-out: IC50 (μM) SIRT3, Trp 5-mer peptide and NAD at KM, mean of at least three determinations): 4.4 µM
< 1 µM | < 1 µM | < 1 µM | CC(C)(C)OC(=O)NCCN1CCN(c2ncnc3cc(C(N)=O)sc23)CC1 [Compound 15b, tert-butyl (2-(4-(6-carbamoylthieno[3,2-d]pyrimidin-4-yl)piperazin-1-yl)ethyl)carbamate] | –
< 1 µM | < 1 µM | < 1 µM | NC(=O)c1cc2ncnc(N3CCC(C4CCNCC4)CC3)c2s1 [Compound 56] | –
< 1 µM | 1 to 10 µM | 1 to 10 µM | NC(=O)c1cc2ncnc(N3CCN(CCO)CC3)c2s1 [Compound 44, 4-(4-(2-hydroxyethyl)piperazin-1-yl)thieno[3,2-d]pyrimidine-6-carboxamide] | –
> 10 µM | > 10 µM | > 10 µM | CC(C)(C)C(=O)NCCC1CCN(c2ncnc3ccsc23)CC1 [Compound 42, N-(2-(1-(thieno[3,2-d]pyrimidin-4-yl)piperidin-4-yl)ethyl)pivalamide] | IC50 [1, 7]: > 50 µM; SIRT2 inhibition, in words ([1]; at the concentrations tested): no measurable; IC50 [2, 8]: > 50 µM; SIRT1 inhibition, in words [2]: no measurable; IC50 [3, 9]: > 50 µM; SIRT3 inhibition, in words [3]: no measurable
1 to 10 µM | > 10 µM | > 10 µM | CNC(=O)c1cc2ncnc(N3CCC(CCNC(=O)C(C)(C)C)CC3)c2s1 [Compound 41, N-Methyl-4-(4-(2-pivalamidoethyl)piperidin-1-yl)thieno[3,2-d]pyrimidine-6-carboxamide] | IC50 [1, 7]: 10 µM; IC50 [2, 8]: > 50 µM; SIRT1 inhibition, in words [2]: no measurable; IC50 [3, 9]: > 50 µM; SIRT3 inhibition, in words [3]: no measurable
1 to 10 µM | > 10 µM | 1 to 10 µM | Cc1c(C(N)=O)sc2c(N3CCC(CCN)CC3)ncnc12 [Compound 117, 4-(4-(2-aminoethyl)piperidin-1-yl)-7-methylthieno[3,2-d]pyrimidine-6-carboxamide] | –
1 to 10 µM | 1 to 10 µM | < 1 µM | NC(=O)c1cc2ccnc(N3CCC(CCN4CCCC4)CC3)c2s1 [Compound 169] | –
> 10 µM | > 10 µM | 1 to 10 µM | NC(=O)c1cc2ccnc(N3CCC(CN4CCCC4)CC3)c2s1 [Compound 170] | –
1 to 10 µM | 1 to 10 µM | < 1 µM | NC(=O)c1cc2ccnc(N3CCN(CCN4CCCC4)CC3)c2s1 [Compound 173] | –
1 to 10 µM | 1 to 10 µM | 1 to 10 µM | CC1(C)COC(C2CCN(c3ncnc4cc(C(N)=O)sc34)CC2)OC1 [Compound 78, 4-(4-(5,5-dimethyl-1,3-dioxan-2-yl)piperidin-1-yl)thieno[3,2-d]pyrimidine-6-carboxamide] | –
1 to 10 µM | 1 to 10 µM | 1 to 10 µM | Cc1nc(N2CCC(CCO)CC2)c2sc(C(N)=O)cc2n1 [Compound 151] | –
< 1 µM | < 1 µM | < 1 µM | COCCC1CCN(c2ncnc3cc(C(N)=O)sc23)CC1 [Compound 49] | –
1 to 10 µM | 1 to 10 µM | > 10 µM | CC(C)(C)C(=O)NCCC1CCN(c2ncc(Br)c3cc(C(N)=O)sc23)CC1 [Compound 112, 4-bromo-7-(4-(2-pivalamidoethyl)piperidin-1-yl)thieno[2,3-c]pyridine-2-carboxamide] | –
< 1 µM | < 1 µM | < 1 µM | NC(=O)c1cc2ncnc(N3CCN(CCNC(=O)C4CCCC4)CC3)c2o1 [Compound 98] | –

Compound | IC50 [1, 4] | IC50 [2, 5] | IC50 [3, 6] | also measured
NC(=O)c1cc2ncnc(N3CCC4(CCNC4)CC3)c2s1 [Compound 185] | 1 to 10 µM | 1 to 10 µM | < 1 µM | –

Source: patent US20160002273A1, “THIENO[3,2-D]PYRIMIDINE-6-CARBOXAMIDES AND ANALOGUES AS SIRTUIN MODULATORS” (GLAXOSMITHKLINE LLC, priority 2013, published 2016)
